Measured values reported in the supplement of paper PMC10307832.

Legend:
Assay in all cases: relative viability (nuclei count vs DMSO), 5 days (fraction); higher = more cells survive
LXF-289 = system: LXF-289
Outline: (§1)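 Medians of duplicate plates are given as relative viability. That measure is the nuclei count in treated wells divided by the count in vehicle wells. Counts were taken on 4× images of lung cancer cell lines in 1536-well plates, 5 days after pin-tool dosing the day after seeding with one drug alone or a fixed anchor-drug dose plus five library-drug doses (not always all listed) in √10 steps.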

NCI-H2170 = system: NCI-H2170
Outline: as §1

NCI-H441 = system: NCI-H441
Outline: as §1

NCI-H1792 = system: NCI-H1792
Outline: as §1

RERF-LC-KJ = system: RERF-LC-KJ
Outline: as §1

NCI-H1755 = system: NCI-H1755
Outline: as §1

NCI-H1355 = system: NCI-H1355
Outline: as §1

NCI-H522 = system: NCI-H522
Outline: as §1

LCLC-103H = system: LCLC-103H
Outline: as §1

NCI-H322M = system: NCI-H322M
Outline: as §1

NCI-H1915 = system: NCI-H1915
Outline: as §1

SK-MES-1 = system: SK-MES-1
Outline: as §1

NCI-H460 = system: NCI-H460
Outline: as §1

NCI-H520 = system: NCI-H520
Outline: as §1

NCI-H1651 = system: NCI-H1651
Outline: as §1

NCI-H661 = system: NCI-H661
Outline: as §1

NCI-H2347 = system: NCI-H2347
Outline: as §1

SW 900 = system: SW 900
Outline: as §1

PC-14 = system: PC-14
Outline: as §1

NCI-H727 = system: NCI-H727
Outline: as §1

NCI-H596 = system: NCI-H596
Outline: as §1

NCI-H3122 = system: NCI-H3122
Outline: as §1

NCI-H650 = system: NCI-H650
Outline: as §1

SMILES: COc1cc(N2CCC(C(N)=O)CC2)ccc1Nc1nc(N)c(Cl)c(Nc2ccccc2S(=O)(=O)C(C)C)n1 [HG-5-88-01] + O=C(c1cc(Cc2n[nH]c(=O)c3ccccc23)ccc1F)N1CCN(C(=O)C2CC2)CC1 [Olaparib] (partner 8 µM)
- relative viability (LXF-289; first compound 0.04 µM): 0.988
- relative viability (LXF-289; first compound 0.1265 µM): 1.13
- relative viability (LXF-289; first compound 0.4 µM): 1.02
- relative viability (LXF-289; first compound 1.265 µM): 1.07
- relative viability (LXF-289; first compound 4 µM): 1.08
- relative viability (NCI-H2170; first compound 0.04 µM): 0.64
- relative viability (NCI-H2170; first compound 0.1265 µM): 0.669
- relative viability (NCI-H2170; first compound 0.4 µM): 0.605
- relative viability (NCI-H2170; first compound 1.265 µM): 0.53
- relative viability (NCI-H2170; first compound 4 µM): 0.545
- relative viability (NCI-H441; first compound 0.04 µM): 0.557
- relative viability (NCI-H441; first compound 0.1265 µM): 0.639
- relative viability (NCI-H441; first compound 0.4 µM): 0.701
- relative viability (NCI-H441; first compound 1.265 µM): 0.574
- relative viability (NCI-H441; first compound 4 µM): 0.434
- relative viability (NCI-H1792; first compound 0.04 µM): 0.513
- relative viability (NCI-H1792; first compound 0.1265 µM): 0.424
- relative viability (NCI-H1792; first compound 0.4 µM): 0.434
- relative viability (NCI-H1792; first compound 1.265 µM): 0.397
- relative viability (NCI-H1792; first compound 4 µM): 0.484
- relative viability (RERF-LC-KJ; first compound 0.04 µM): 0.937
- relative viability (RERF-LC-KJ; first compound 0.1265 µM): 0.957
- relative viability (RERF-LC-KJ; first compound 0.4 µM): 0.878
- relative viability (RERF-LC-KJ; first compound 1.265 µM): 0.884
- relative viability (RERF-LC-KJ; first compound 4 µM): 0.519
- relative viability (NCI-H1755; first compound 0.04 µM): 0.811
- relative viability (NCI-H1755; first compound 0.1265 µM): 0.869
- relative viability (NCI-H1755; first compound 0.4 µM): 0.874
- relative viability (NCI-H1755; first compound 1.265 µM): 0.849
- relative viability (NCI-H1755; first compound 4 µM): 0.928
- relative viability (NCI-H1355; first compound 0.04 µM): 0.833
- relative viability (NCI-H1355; first compound 0.1265 µM): 0.768
- relative viability (NCI-H1355; first compound 0.4 µM): 0.74
- relative viability (NCI-H1355; first compound 1.265 µM): 0.706
- relative viability (NCI-H1355; first compound 4 µM): 0.584
- relative viability (NCI-H522; first compound 0.04 µM): 0.724
- relative viability (NCI-H522; first compound 0.1265 µM): 0.665
- relative viability (NCI-H522; first compound 0.4 µM): 0.761
- relative viability (NCI-H522; first compound 1.265 µM): 0.574
- relative viability (NCI-H522; first compound 4 µM): 0.594
- relative viability (LCLC-103H; first compound 0.04 µM): 0.714
- relative viability (LCLC-103H; first compound 0.1265 µM): 0.748
- relative viability (LCLC-103H; first compound 0.4 µM): 0.697
- relative viability (LCLC-103H; first compound 1.265 µM): 0.654
- relative viability (LCLC-103H; first compound 4 µM): 0.719
- relative viability (NCI-H322M; first compound 0.04 µM): 0.809
- relative viability (NCI-H322M; first compound 0.1265 µM): 0.699
- relative viability (NCI-H322M; first compound 0.4 µM): 0.913
- relative viability (NCI-H322M; first compound 1.265 µM): 0.485
- relative viability (NCI-H322M; first compound 4 µM): 0.686
- relative viability (NCI-H1915; first compound 0.04 µM): 0.259
- relative viability (NCI-H1915; first compound 0.1265 µM): 0.25
- relative viability (NCI-H1915; first compound 0.4 µM): 0.304
- relative viability (NCI-H1915; first compound 1.265 µM): 0.266
- relative viability (NCI-H1915; first compound 4 µM): 0.248
- relative viability (SK-MES-1; first compound 0.04 µM): 0.657
- relative viability (SK-MES-1; first compound 0.1265 µM): 0.658
- relative viability (SK-MES-1; first compound 0.4 µM): 0.689
- relative viability (SK-MES-1; first compound 1.265 µM): 0.508
- relative viability (SK-MES-1; first compound 4 µM): 0.564
- relative viability (NCI-H460; first compound 0.04 µM): 0.415
- relative viability (NCI-H460; first compound 0.1265 µM): 0.498
- relative viability (NCI-H460; first compound 0.4 µM): 0.388
- relative viability (NCI-H460; first compound 1.265 µM): 0.356
- relative viability (NCI-H460; first compound 4 µM): 0.503
- relative viability (NCI-H520; first compound 0.04 µM): 0.289
- relative viability (NCI-H520; first compound 0.1265 µM): 0.33
- relative viability (NCI-H520; first compound 0.4 µM): 0.389
- relative viability (NCI-H520; first compound 1.265 µM): 0.327
- relative viability (NCI-H520; first compound 4 µM): 0.363
- relative viability (NCI-H1651; first compound 0.04 µM): 0.189
- relative viability (NCI-H1651; first compound 0.1265 µM): 0.199
- relative viability (NCI-H1651; first compound 0.4 µM): 0.176
- relative viability (NCI-H1651; first compound 1.265 µM): 0.234
- relative viability (NCI-H1651; first compound 4 µM): 0.164
- relative viability (NCI-H661; first compound 0.04 µM): 0.707
- relative viability (NCI-H661; first compound 0.1265 µM): 0.779
- relative viability (NCI-H661; first compound 0.4 µM): 0.8
- relative viability (NCI-H661; first compound 1.265 µM): 0.716
- relative viability (NCI-H661; first compound 4 µM): 0.845
- relative viability (NCI-H2347; first compound 0.04 µM): 0.664
- relative viability (NCI-H2347; first compound 0.1265 µM): 0.569
- relative viability (NCI-H2347; first compound 0.4 µM): 0.61
- relative viability (NCI-H2347; first compound 1.265 µM): 0.539
- relative viability (NCI-H2347; first compound 4 µM): 0.549
- relative viability (SW 900; first compound 0.04 µM): 0.954
- relative viability (SW 900; first compound 0.1265 µM): 1.06
- relative viability (SW 900; first compound 0.4 µM): 0.867
- relative viability (SW 900; first compound 1.265 µM): 0.848
- relative viability (SW 900; first compound 4 µM): 0.631
- relative viability (PC-14; first compound 0.04 µM): 0.257
- relative viability (PC-14; first compound 0.1265 µM): 0.339
- relative viability (PC-14; first compound 0.4 µM): 0.321
- relative viability (PC-14; first compound 1.265 µM): 0.307
- relative viability (PC-14; first compound 4 µM): 0.0752
- relative viability (NCI-H727; first compound 0.04 µM): 0.715
- relative viability (NCI-H727; first compound 0.1265 µM): 0.705
- relative viability (NCI-H727; first compound 0.4 µM): 0.827
- relative viability (NCI-H727; first compound 4 µM): 0.572
- relative viability (NCI-H596; first compound 0.04 µM): 0.729
- relative viability (NCI-H596; first compound 0.1265 µM): 0.734
- relative viability (NCI-H596; first compound 0.4 µM): 0.682
- relative viability (NCI-H596; first compound 1.265 µM): 0.777
- relative viability (NCI-H596; first compound 4 µM): 0.694
- relative viability (NCI-H3122; first compound 0.04 µM): 0.594
- relative viability (NCI-H3122; first compound 0.1265 µM): 0.403
- relative viability (NCI-H3122; first compound 0.4 µM): 0.3
- relative viability (NCI-H3122; first compound 1.265 µM): 0.285
- relative viability (NCI-H3122; first compound 4 µM): 0.15
- relative viability (NCI-H650; first compound 0.04 µM): 0.423
- relative viability (NCI-H650; first compound 0.1265 µM): 0.366
- relative viability (NCI-H650; first compound 0.4 µM): 0.408
- relative viability (NCI-H650; first compound 1.265 µM): 0.321
- relative viability (NCI-H650; first compound 4 µM): 0.239
